Experimental data reported in ChEMBL document CHEMBL3352578 (J Med Chem, 2014).
Activity calls are given as the source filed them. The rule behind the calls is not given here.

Experiments:
[1] = Clearance in Sprague-Dawley rat at 2.5 mg/kg, iv; type: ADME, organism-based; design: dose 2.5 mg/kg, route intravenous; details: in vivo
[2] = Cmax in Sprague-Dawley rat at 10 mg/kg, po; type: ADME, organism-based; design: dose 10 mg/kg, route oral; details: in vivo
Rattus norvegicus [3] = experiment: Positive allosteric modulation of mGlu2 receptor in Sprague-Dawley rat sleep-wake EEG paradigm model assessed as effect on deep sleep stage at 3 mg/kg, po after 4 hrs by electroencephalogram analysis; type: functional, organism-based; design: dose 3 mg/kg
Rattus norvegicus [4] = experiment: Positive allosteric modulation of mGlu2 receptor in po dosed Sprague-Dawley rat assessed effect on sleep-wake EEG paradigm after 20 hrs by electroencephalogram analysis; type: functional; details: for minimal effective dose: Rattus norvegicus, Sprague-Dawley, po, 20 h, read-out: MED
hERG (KCNH2) = hERG (KCNH2) (Homo sapiens, UniProt Q12809); experiment: Inhibition of human ERG channel transfected in HEK293 cells at 3 uM by patch clamp technique; type: cell-based; details: HEK293 cells transfected with human ERG channel
Rattus norvegicus [5] = experiment: Positive allosteric modulation of mGlu2 receptor in Sprague-Dawley rat sleep-wake EEG paradigm model assessed as effect on passive wake stage at 3 mg/kg, po after 4 hrs by electroencephalogram analysis; type: functional, organism-based; design: dose 3 mg/kg
[6] = Oral bioavailability in Sprague-Dawley rat at 10 mg/kg; type: ADME, organism-based; details: in vivo
[7] = Metabolic stability in human liver microsomes assessed as compound metabolized at 5 uM after 15 mins by MS/MS analysis in presence of NADPH; type: ADME; details: read-out: Drug metabolism
Rattus norvegicus [8] = experiment: Positive allosteric modulation of mGlu2 receptor in Sprague-Dawley rat sleep-wake EEG paradigm model assessed as effect on active wake stage at 3 mg/kg, po after 4 hrs by electroencephalogram analysis; type: functional, organism-based; design: dose 3 mg/kg
[9] = molecular target: T1, Metabotropic glutamate receptor 2 (Homo sapiens, UniProt Q14416); experiment: Positive allosteric modulation of human mGlu2 receptor expressed in CHO cells assessed as potentiation of glutamate-induced effect incubated for 30 mins prior to [35S]GTPgamma addition measured after 30 mins; type: functional, cell-based
Target sequence in this assay (Q14416 whole entry): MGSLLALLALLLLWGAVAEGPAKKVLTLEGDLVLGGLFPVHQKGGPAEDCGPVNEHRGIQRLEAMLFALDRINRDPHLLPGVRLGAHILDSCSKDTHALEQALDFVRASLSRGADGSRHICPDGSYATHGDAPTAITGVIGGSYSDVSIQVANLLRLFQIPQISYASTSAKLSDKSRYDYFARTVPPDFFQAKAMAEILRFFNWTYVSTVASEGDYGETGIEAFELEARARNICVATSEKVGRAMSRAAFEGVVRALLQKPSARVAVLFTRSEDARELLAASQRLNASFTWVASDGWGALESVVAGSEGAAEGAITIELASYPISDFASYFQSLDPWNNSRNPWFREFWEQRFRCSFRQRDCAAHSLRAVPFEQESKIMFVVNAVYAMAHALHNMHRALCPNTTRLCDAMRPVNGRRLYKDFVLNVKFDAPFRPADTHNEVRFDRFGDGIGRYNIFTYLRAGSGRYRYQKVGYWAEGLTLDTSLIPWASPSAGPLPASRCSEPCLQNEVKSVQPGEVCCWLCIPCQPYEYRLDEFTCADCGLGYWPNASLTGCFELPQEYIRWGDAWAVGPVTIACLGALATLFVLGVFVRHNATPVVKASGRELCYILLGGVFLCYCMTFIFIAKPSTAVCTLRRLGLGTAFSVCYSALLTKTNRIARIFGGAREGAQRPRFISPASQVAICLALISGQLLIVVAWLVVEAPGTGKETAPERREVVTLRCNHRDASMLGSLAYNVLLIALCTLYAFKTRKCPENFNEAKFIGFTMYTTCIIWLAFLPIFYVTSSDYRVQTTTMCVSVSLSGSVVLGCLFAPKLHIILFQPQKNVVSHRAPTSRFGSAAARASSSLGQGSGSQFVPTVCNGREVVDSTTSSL

Rattus norvegicus [10] = experiment: Positive allosteric modulation of mGlu2 receptor in Sprague-Dawley rat sleep-wake EEG paradigm model assessed as effect on light sleep stage at 3 mg/kg, po after 4 hrs by electroencephalogram analysis; type: functional, organism-based; design: dose 3 mg/kg
[11] = Ratio of drug level in brain to plasma in Swiss mouse at 10 mg/kg, sc after 1 hr; type: ADME, organism-based; design: dose 10 mg/kg, route subcutaneous; details: brain and plasma, read-out: BPR
[12] = Metabolic stability in rat liver microsomes assessed as compound metabolized at 5 uM after 15 mins by MS/MS analysis in presence of NADPH; type: ADME; details: read-out: Drug metabolism
Rattus norvegicus [13] = experiment: Positive allosteric modulation of mGlu2 receptor in Sprague-Dawley rat sleep-wake EEG paradigm model assessed as effect on intermediate state at 3 mg/kg, po after 4 hrs by electroencephalogram analysis; type: functional, organism-based; design: dose 3 mg/kg
[14] = Elimination half life in Sprague-Dawley rat at 2.5 mg/kg, iv; type: ADME, organism-based; design: dose 2.5 mg/kg, route intravenous; details: in vivo, read-out: beta t1/2 (converted)
[15] = AUC (0 to infinity) in Sprague-Dawley rat at 10 mg/kg, po; type: ADME, organism-based; design: time infinity, dose 10 mg/kg, route oral; details: plasma
Rattus norvegicus [16] = experiment: Positive allosteric modulation of mGlu2 receptor in Sprague-Dawley rat sleep-wake EEG paradigm model assessed as reduction in REM sleep at 3 mg/kg, po after 4 hrs by electroencephalogram analysis; type: functional, organism-based; design: dose 3 mg/kg
[17] = molecular target: T1, Metabotropic glutamate receptor 2; experiment: Positive allosteric modulation of human mGlu2 receptor expressed in CHO cells assessed as potentiation of glutamate-induced effect incubated for 30 mins prior to [35S]GTPgamma addition measured after 30 mins relative to glutamate; type: functional, cell-based
Target sequence in this assay (Q14416 19-872 limits assumed): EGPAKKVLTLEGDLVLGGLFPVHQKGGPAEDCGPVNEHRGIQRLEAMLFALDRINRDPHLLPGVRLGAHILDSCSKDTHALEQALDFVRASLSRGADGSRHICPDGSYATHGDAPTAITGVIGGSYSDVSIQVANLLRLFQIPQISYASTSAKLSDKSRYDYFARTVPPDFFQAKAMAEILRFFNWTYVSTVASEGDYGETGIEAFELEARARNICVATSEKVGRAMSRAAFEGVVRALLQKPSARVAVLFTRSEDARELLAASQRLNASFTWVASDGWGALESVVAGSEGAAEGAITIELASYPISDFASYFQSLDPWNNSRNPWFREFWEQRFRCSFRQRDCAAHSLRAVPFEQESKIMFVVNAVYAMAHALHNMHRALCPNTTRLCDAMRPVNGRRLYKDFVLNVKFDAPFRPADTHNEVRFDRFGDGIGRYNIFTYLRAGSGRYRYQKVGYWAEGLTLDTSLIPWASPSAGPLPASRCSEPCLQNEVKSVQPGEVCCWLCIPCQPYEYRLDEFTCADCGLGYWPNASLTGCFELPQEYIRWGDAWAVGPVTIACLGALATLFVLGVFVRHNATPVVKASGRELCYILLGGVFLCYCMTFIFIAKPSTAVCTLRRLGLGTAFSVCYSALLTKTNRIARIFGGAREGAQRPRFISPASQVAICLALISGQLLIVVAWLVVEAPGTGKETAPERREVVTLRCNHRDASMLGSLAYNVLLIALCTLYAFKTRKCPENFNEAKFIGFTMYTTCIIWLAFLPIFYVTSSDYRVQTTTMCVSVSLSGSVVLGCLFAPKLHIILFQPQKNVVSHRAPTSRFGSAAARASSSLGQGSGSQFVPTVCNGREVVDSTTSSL

[18] = Tmax in Sprague-Dawley rat at 2.5 mg/kg, iv; type: ADME, organism-based; design: dose 2.5 mg/kg, route intravenous; details: in vivo
[19] = molecular target: Metabotropic glutamate receptor 4 (Homo sapiens) (UniProt Q14833); experiment: Binding affinity to human mGlu4 receptor expressed in […] L929 cells assessed as calcium mobilization by [35S]GTPgamma binding assay; type: functional, cell-based
[20] = Volume of distribution at steady state in Sprague-Dawley rat at 2.5 mg/kg, iv; type: ADME, organism-based; design: dose 2.5 mg/kg, route intravenous; details: in vivo, read-out: Vdss
[21] = Oral bioavailability in dog at 2.5 mg/kg; type: ADME, organism-based, Canis lupus familiaris; details: in vivo
[22] = Tmax in dog at 1 mg/kg, iv; type: ADME, organism-based, Canis lupus familiaris; design: dose 1 mg/kg, route intravenous; details: in vivo
[23] = Lipophilicity, log P of the compound at pH 6.8; type: physicochemical; details: buffer
Rattus norvegicus [24] = experiment: Positive allosteric modulation of mGlu2 receptor in po dosed Sprague-Dawley rat assessed free plasma drug level causing effect on sleep-wake EEG paradigm after 20 hrs by electroencephalogram analysis; type: functional
[25] = Volume of distribution at steady state in dog at 1 mg/kg, iv; type: ADME, organism-based, Canis lupus familiaris; design: dose 1 mg/kg, route intravenous; details: in vivo, read-out: Vdss
[26] = Elimination half life in dog at 1 mg/kg, iv; type: ADME, organism-based, Canis lupus familiaris; design: dose 1 mg/kg, route intravenous; details: in vivo, read-out: beta t1/2 (converted)
[27] = molecular target: Metabotropic glutamate receptor 1 (Homo sapiens) (UniProt Q13255); experiment: Binding affinity to human mGlu1 receptor expressed in HEK293 cells assessed as calcium mobilization by [35S]GTPgamma binding assay; type: functional, cell-based
[28] = molecular target: Metabotropic glutamate receptor 6 (Rattus norvegicus) (UniProt P35349); experiment: Binding affinity to rat mGlu6 receptor expressed in CHO cells assessed as calcium mobilization by [35S]GTPgamma binding assay; type: functional, cell-based
[29] = Apparent permeability from apical to basolateral side in human Caco2 cells; type: ADME, cell-based; details: Caco-2
[30] = Clearance in dog at 1 mg/kg, iv; type: ADME, organism-based, Canis lupus familiaris; design: dose 1 mg/kg, route intravenous; details: in vivo
[31] = AUC (0 to infinity) in dog at 2.5 mg/kg, po; type: ADME, organism-based, Canis lupus familiaris; design: time infinity, dose 2.5 mg/kg, route oral; details: plasma
[32] = molecular target: Metabotropic glutamate receptor 3 (Homo sapiens) (UniProt Q14832); experiment: Binding affinity to human mGlu3 receptor expressed in HEK293 cells assessed as calcium mobilization by [35S]GTPgamma binding assay; type: functional, cell-based
[33] = Cmax in dog at 2.5 mg/kg, po; type: ADME, organism-based, Canis lupus familiaris; design: dose 2.5 mg/kg, route oral; details: in vivo
[34] = molecular target: Metabotropic glutamate receptor 5 (Homo sapiens) (UniProt P41594); experiment: Binding affinity to human mGlu5 receptor expressed in HEK293 cells assessed as calcium mobilization by [35S]GTPgamma binding assay; type: functional, cell-based
[35] = Apparent permeability from basolateral to apical side in human Caco2 cells; type: ADME, cell-based; details: Caco-2
[36] = Dissociation constant, pKa of the compound; type: physicochemical

hERG (KCNH2), sequence (Q12809 whole entry): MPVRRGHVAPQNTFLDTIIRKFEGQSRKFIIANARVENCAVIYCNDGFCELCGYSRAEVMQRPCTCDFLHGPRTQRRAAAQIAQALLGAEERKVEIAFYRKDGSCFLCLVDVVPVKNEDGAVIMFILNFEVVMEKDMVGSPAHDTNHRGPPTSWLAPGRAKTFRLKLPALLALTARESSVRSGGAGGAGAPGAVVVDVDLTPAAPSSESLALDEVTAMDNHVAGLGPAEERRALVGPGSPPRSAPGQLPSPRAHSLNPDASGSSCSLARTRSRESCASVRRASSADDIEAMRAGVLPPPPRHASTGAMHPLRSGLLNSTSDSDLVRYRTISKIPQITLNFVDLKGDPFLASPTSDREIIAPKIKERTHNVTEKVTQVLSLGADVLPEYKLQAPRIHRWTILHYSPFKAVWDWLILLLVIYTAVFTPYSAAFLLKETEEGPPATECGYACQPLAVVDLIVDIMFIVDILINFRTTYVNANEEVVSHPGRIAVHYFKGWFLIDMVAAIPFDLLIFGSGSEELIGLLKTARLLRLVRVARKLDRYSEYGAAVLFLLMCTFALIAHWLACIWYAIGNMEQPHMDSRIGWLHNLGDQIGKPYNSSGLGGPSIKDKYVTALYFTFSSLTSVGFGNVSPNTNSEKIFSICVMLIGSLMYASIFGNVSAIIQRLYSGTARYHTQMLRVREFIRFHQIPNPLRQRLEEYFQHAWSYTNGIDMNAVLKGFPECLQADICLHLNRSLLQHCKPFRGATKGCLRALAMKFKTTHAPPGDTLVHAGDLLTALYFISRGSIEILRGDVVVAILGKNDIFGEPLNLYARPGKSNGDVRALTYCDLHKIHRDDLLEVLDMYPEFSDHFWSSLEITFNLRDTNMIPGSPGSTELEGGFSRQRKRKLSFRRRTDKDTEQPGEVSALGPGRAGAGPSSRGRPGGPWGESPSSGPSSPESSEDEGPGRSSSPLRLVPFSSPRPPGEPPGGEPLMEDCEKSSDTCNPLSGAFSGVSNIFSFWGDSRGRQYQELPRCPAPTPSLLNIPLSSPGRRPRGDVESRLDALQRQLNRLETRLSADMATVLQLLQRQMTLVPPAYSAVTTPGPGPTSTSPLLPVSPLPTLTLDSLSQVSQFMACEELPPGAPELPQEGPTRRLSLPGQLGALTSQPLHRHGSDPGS
Metabotropic glutamate receptor 6 (Rattus norvegicus), sequence (P35349 whole entry): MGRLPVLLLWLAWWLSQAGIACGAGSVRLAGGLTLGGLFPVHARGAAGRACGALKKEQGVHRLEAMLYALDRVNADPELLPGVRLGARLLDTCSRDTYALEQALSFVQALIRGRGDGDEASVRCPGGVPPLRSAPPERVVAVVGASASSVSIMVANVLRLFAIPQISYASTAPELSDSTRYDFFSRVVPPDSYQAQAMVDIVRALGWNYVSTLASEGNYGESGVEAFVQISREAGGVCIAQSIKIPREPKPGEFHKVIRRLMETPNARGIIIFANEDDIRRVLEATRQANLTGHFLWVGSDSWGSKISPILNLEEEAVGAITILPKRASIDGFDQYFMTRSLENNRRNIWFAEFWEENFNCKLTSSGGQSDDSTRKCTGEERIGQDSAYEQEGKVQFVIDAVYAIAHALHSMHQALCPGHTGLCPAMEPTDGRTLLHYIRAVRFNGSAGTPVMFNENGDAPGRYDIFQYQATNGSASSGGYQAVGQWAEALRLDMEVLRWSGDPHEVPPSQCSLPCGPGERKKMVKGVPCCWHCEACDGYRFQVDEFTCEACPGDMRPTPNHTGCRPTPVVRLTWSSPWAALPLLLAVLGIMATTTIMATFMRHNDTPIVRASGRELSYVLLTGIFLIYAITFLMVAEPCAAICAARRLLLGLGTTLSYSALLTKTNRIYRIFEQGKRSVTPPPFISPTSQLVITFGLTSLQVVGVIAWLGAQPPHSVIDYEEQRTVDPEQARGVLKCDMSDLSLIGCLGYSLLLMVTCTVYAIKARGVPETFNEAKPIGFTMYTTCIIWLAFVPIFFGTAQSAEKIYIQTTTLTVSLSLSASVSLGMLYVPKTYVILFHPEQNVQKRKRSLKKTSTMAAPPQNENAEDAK
Metabotropic glutamate receptor 4 (Homo sapiens), sequence (Q14833 whole entry): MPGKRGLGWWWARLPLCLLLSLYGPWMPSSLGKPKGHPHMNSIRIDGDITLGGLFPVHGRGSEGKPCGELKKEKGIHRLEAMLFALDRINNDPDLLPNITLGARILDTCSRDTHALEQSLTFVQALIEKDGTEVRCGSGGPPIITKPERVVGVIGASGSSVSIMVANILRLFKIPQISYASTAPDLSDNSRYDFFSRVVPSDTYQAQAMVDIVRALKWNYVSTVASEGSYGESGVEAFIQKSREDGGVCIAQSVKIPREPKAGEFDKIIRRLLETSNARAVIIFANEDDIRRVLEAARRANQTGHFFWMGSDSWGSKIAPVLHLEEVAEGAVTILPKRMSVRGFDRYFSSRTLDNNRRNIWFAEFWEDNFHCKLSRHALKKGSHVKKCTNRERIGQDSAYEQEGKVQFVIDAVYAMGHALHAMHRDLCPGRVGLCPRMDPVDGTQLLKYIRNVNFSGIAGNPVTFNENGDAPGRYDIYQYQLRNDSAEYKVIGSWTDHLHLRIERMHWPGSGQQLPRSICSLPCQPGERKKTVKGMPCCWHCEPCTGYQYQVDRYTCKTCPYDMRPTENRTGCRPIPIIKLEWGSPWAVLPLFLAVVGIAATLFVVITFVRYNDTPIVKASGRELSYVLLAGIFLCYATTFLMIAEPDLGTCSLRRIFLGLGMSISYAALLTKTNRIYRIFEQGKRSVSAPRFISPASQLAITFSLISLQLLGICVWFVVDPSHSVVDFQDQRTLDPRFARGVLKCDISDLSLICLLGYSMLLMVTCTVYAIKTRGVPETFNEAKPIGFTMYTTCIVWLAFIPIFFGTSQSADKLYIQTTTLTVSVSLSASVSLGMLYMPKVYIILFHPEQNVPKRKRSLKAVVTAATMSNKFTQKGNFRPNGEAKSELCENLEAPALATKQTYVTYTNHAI

| SMILES | clearance [1] | Cmax [2] | Activity (Rattus norvegicus [3]) | MEC (Rattus norvegicus [4]) | minimal effective dose (Rattus norvegicus [4]) | inhibition at 3 µM (hERG (KCNH2)) | Activity (Rattus norvegicus [5]) | bioavailability [6] | metabolised at 0.25 h, 5 µM [7] | Activity (Rattus norvegicus [8]) | EC50 [9] | Activity (Rattus norvegicus [10]) | Kp at 1 h [11] | metabolised at 0.25 h, 5 µM [12] | Activity (Rattus norvegicus [13]) | half-life [14] | AUC(0-inf) [15] | Activity (Rattus norvegicus [16]) | Emax [17] | Tmax [18] | also measured |
| --- | --- | --- | --- | --- | --- | --- | --- | --- | --- | --- | --- | --- | --- | --- | --- | --- | --- | --- | --- | --- | --- |
| N#Cc1c(N2CCC(c3ccccc3)CC2)ccn(CC2CC2)c1=O | 18 mL/min/kg | 1410 ng/mL | inactive | 420 ng/mL | 3 mg/kg | 58% | inactive | 51% | 25% | inactive | 151 nM | inactive | 0.3 | 44% | inactive | 2.1 h | 4350 ng·h/mL | Active | 309% | 0.5 h | – |
| CCCCn1ccc(N2CCC(c3ccccc3)CC2)c(Cl)c1=O [JNJ-40411813] | 23 mL/min/kg | 938 ng/mL | inactive | 281 ng/mL | 3 mg/kg | – | inactive | 31% | 23% | inactive | – | inactive | 1 | 53% | inactive | 2.3 h | 2250 ng·h/mL | Active | – | 0.5 h | Activity [19]: inactive; Vd [20]: 2.3 L/kg; bioavailability [21]: 20%; Tmax [22]: 0.5 h; logD [23]: 4.6; fMEC (Rattus norvegicus [24]): 0.9 ng/mL; Vd [25]: 1.8 L/kg; half-life [26]: 3.7 h; Activity [27]: inactive; Activity [28]: inactive; Papp A→B [29]: 12 ×10⁻⁶ cm/s; clearance [30]: 23 mL/min/kg; AUC(0-inf) [31]: 743 ng·h/mL; Activity [32]: inactive; Cmax [33]: 373 ng/mL; Activity [34]: inactive; Papp B→A [35]: 6 ×10⁻⁶ cm/s; pKa [36]: < 2 |
| N#Cc1c(N2CCC(c3cccc(F)c3)CC2)ccn(CC2CC2)c1=O | – | – | – | – | – | 87% | – | – | 35% | – | 141 nM | – | – | 37% | – | – | – | – | 268% | – | – |
| N#Cc1c(N2CCC(c3cccc(C(F)(F)F)c3)CC2)ccn(CC2CC2)c1=O | – | – | – | – | – | 97% | – | – | 35% | – | 46 nM | – | – | 39% | – | – | – | – | 191% | – | – |
| CC(C)Cn1ccc(N2CCC(c3ccccc3)CC2)c(Cl)c1=O | 13 mL/min/kg | 1360 ng/mL | inactive | 407 ng/mL | 3 mg/kg | 24% | inactive | 25% | 12% | inactive | – | inactive | 0.8 | 31% | inactive | 2.6 h | 3460 ng·h/mL | Active | 260% | 0.7 h | – |
| N#Cc1c(N2CCC(c3ccc(F)cc3)CC2)ccn(CC2CC2)c1=O | – | – | – | – | – | 89% | – | – | 31% | – | 89 nM | – | – | 36% | – | – | – | – | 258% | – | – |
| N#Cc1c(N2CCC(c3cc(F)cc(F)c3)CC2)ccn(CC2CC2)c1=O | – | – | – | – | – | 95% | – | – | 30% | – | 151 nM | – | – | 45% | – | – | – | – | 234% | – | – |
| N#Cc1c(N2CCC(c3c(F)cccc3F)CC2)ccn(CC2CC2)c1=O | – | – | – | – | – | 86% | – | – | 18% | – | 31 nM | – | – | 42% | – | – | – | – | 291% | – | – |
| O=c1c(Cl)c(N2CCC(c3ccccc3)CC2)ccn1CC1CC1 | 24 mL/min/kg | 986 ng/mL | inactive | >986 ng/mL | > 10 mg/kg | 51% | inactive | 34% | 17% | inactive | 170 nM | inactive | 0.9 | 30% | inactive | 3.5 h | 2310 ng·h/mL | inactive | 259% | 0.5 h | – |
| N#Cc1c(N2CCC(c3ccccc3F)CC2)ccn(CC2CC2)c1=O | – | – | – | – | – | 75% | – | – | 30% | – | 81 nM | – | – | 42% | – | – | – | – | 282% | – | – |
